Results published in paper PMC4757070, “Involvement of a Novel Class C Beta-Lactamase in the Transglutaminase Mediated Cross-Linking Cascade of Streptomyces mobaraensis DSM 40847” (PLoS ONE, 2016).
Like-named read-outs stand apart in the source and are kept apart here.

Legend:
[1] = biological target: T1, beta-lactamase Sml-1 (rSml-1); test: inhibition of nitrocefin hydrolysis at […] nm; Ki from IC50 ([…]) by Cheng-Prusoff; format: biochemical
T1 construct: recombinant Sml-1 produced in E. coli BL21(DE3) RIL with pelB leader and C-terminal Gly-Leu-Glu-(His)6

[2] = biological target: T1, beta-lactamase Sml-1 (rSml-1); test: as above; format: biochemical, Streptomyces mobaraensis

Ki [1] [µM]	Structure (SMILES)	Ki [2] [µM]
180	CC1(C)S[C@@H]2[C@H](NC(=O)[C@H](N)c3ccccc3)C(=O)N2[C@H]1C(=O)O [ampicillin]	–
–	CC1(C)S[C@@H]2[C@H](NC(=O)Cc3ccccc3)C(=O)N2[C@H]1C(=O)O [penicillin G]	100
